# Experimental data: PubChem BioAssay (NCI)
#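 In this assay, cells in 96-well plates receive the compound at five concentrations for 48 hours. Endpoints are linearly interpolated between the surrounding concentrations. Here, GI50 denotes the concentration required for 50% inhibition of growth. TGI is the concentration that stops growth completely.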
# Legend:
# Assay in all cases: NCI-60 cell line screen, 48 h
# UACC-62 melanoma = test system: UACC-62 melanoma
# OVCAR-5 ovarian = test system: OVCAR-5 ovarian
# NCI-H23 lung = test system: NCI-H23 lung
# T-47D breast = test system: T-47D breast
# SF-268 CNS = test system: SF-268 CNS
# HOP-62 NSCLC = test system: HOP-62 NSCLC
# NCI-H460 lung = test system: NCI-H460 lung
# HT29 colon = test system: HT29 colon
# 786-0 renal = test system: 786-0 renal
# CCRF-CEM leukemia = test system: CCRF-CEM leukemia
# OVCAR-3 ovarian = test system: OVCAR-3 ovarian
# DU-145 prostate = test system: DU-145 prostate
# OVCAR-4 ovarian = test system: OVCAR-4 ovarian
# SK-MEL-28 melanoma = test system: SK-MEL-28 melanoma
# TK-10 renal = test system: TK-10 renal
# MCF7 breast = test system: MCF7 breast
# SNB-19 CNS = test system: SNB-19 CNS
# MOLT-4 leukemia = test system: MOLT-4 leukemia
# MDA-MB-231 breast = test system: MDA-MB-231 breast
# IGROV1 ovarian = test system: IGROV1 ovarian
# RXF 393 renal = test system: RXF 393 renal
# SF-539 CNS = test system: SF-539 CNS
# SNB-75 CNS = test system: SNB-75 CNS
# NCI-H522 lung = test system: NCI-H522 lung
# SR leukemia = test system: SR leukemia
# SF-295 CNS = test system: SF-295 CNS
# MDA-MB-435 = test system: MDA-MB-435
# SN12C renal = test system: SN12C renal
# K-562 leukemia = test system: K-562 leukemia
# UO-31 renal = test system: UO-31 renal
# PC-3 prostate = test system: PC-3 prostate
# RPMI-8226 leukemia = test system: RPMI-8226 leukemia
# HL-60(TB) leukemia = test system: HL-60(TB) leukemia
# KM12 colon = test system: KM12 colon
# HS 578T breast = test system: HS 578T breast
# UACC-257 melanoma = test system: UACC-257 melanoma
# OVCAR-8 ovarian = test system: OVCAR-8 ovarian
# CAKI-1 renal = test system: CAKI-1 renal
# A549 NSCLC = test system: A549 NSCLC
# NCI/ADR-RES ovarian = test system: NCI/ADR-RES ovarian
# COLO 205 colon = test system: COLO 205 colon
# HCT-116 colon = test system: HCT-116 colon
# M14 melanoma = test system: M14 melanoma
# SK-OV-3 ovarian = test system: SK-OV-3 ovarian
# SK-MEL-2 melanoma = test system: SK-MEL-2 melanoma
# HCT-15 colon = test system: HCT-15 colon
# U251 CNS = test system: U251 CNS
compound,measurement,setting,value
O=Cc1ccc(Oc2c3ccccc3nc3occc23)cc1,GI50,UACC-62 melanoma,13.1 µM
same,TGI,UACC-62 melanoma,30.4 µM
same,GI50,OVCAR-5 ovarian,18.6 µM
same,TGI,OVCAR-5 ovarian,89.7 µM
same,GI50,NCI-H23 lung,15 µM
same,TGI,NCI-H23 lung,36 µM
same,GI50,T-47D breast,11.4 µM
same,TGI,T-47D breast,36.3 µM
same,GI50,SF-268 CNS,15.5 µM
same,TGI,SF-268 CNS,40.8 µM
same,GI50,HOP-62 NSCLC,14.8 µM
same,TGI,HOP-62 NSCLC,37.9 µM
same,GI50,NCI-H460 lung,20.2 µM
same,TGI,NCI-H460 lung,48.2 µM
same,GI50,HT29 colon,23.1 µM
same,TGI,HT29 colon,61.9 µM
same,GI50,786-0 renal,18.7 µM
same,TGI,786-0 renal,54.5 µM
same,GI50,CCRF-CEM leukemia,13.8 µM
same,TGI,CCRF-CEM leukemia,35.4 µM
same,GI50,OVCAR-3 ovarian,2.59 µM
same,TGI,OVCAR-3 ovarian,11.3 µM
same,GI50,DU-145 prostate,17.6 µM
same,TGI,DU-145 prostate,43.7 µM
same,GI50,OVCAR-4 ovarian,15.8 µM
same,TGI,OVCAR-4 ovarian,52.9 µM
same,GI50,SK-MEL-28 melanoma,17.9 µM
same,TGI,SK-MEL-28 melanoma,34.3 µM
same,GI50,TK-10 renal,3.83 µM
same,TGI,TK-10 renal,21 µM
same,GI50,MCF7 breast,13.8 µM
same,TGI,MCF7 breast,32.2 µM
same,GI50,SNB-19 CNS,28.8 µM
same,TGI,SNB-19 CNS,> 100 µM
same,GI50,MOLT-4 leukemia,6.89 µM
same,TGI,MOLT-4 leukemia,24.4 µM
same,TGI,MDA-MB-231 breast,22.5 µM
same,GI50,IGROV1 ovarian,24.6 µM
same,TGI,IGROV1 ovarian,> 100 µM
same,GI50,RXF 393 renal,2.32 µM
same,TGI,RXF 393 renal,9.17 µM
same,GI50,SF-539 CNS,18.2 µM
same,TGI,SF-539 CNS,37.5 µM
same,GI50,SNB-75 CNS,19.3 µM
same,TGI,SNB-75 CNS,85.2 µM
same,GI50,NCI-H522 lung,49.5 µM
same,TGI,NCI-H522 lung,> 100 µM
same,GI50,SR leukemia,16 µM
same,TGI,SR leukemia,44.7 µM
same,GI50,SF-295 CNS,14.4 µM
same,TGI,SF-295 CNS,36.8 µM
same,GI50,MDA-MB-435,6.49 µM
same,TGI,MDA-MB-435,24.7 µM
same,GI50,SN12C renal,7.73 µM
same,TGI,SN12C renal,24.2 µM
same,GI50,K-562 leukemia,22.6 µM
same,TGI,K-562 leukemia,> 100 µM
same,GI50,UO-31 renal,26.4 µM
same,TGI,UO-31 renal,> 100 µM
same,GI50,PC-3 prostate,19.5 µM
same,TGI,PC-3 prostate,58.6 µM
same,GI50,RPMI-8226 leukemia,12.2 µM
same,TGI,RPMI-8226 leukemia,48.3 µM
same,GI50,HL-60(TB) leukemia,22.9 µM
same,TGI,HL-60(TB) leukemia,56.9 µM
same,GI50,KM12 colon,8.79 µM
same,TGI,KM12 colon,25.4 µM
same,GI50,HS 578T breast,13.4 µM
same,TGI,HS 578T breast,51.6 µM
same,GI50,UACC-257 melanoma,12.2 µM
same,TGI,UACC-257 melanoma,30.1 µM
same,GI50,OVCAR-8 ovarian,18.3 µM
same,TGI,OVCAR-8 ovarian,66.2 µM
same,GI50,CAKI-1 renal,12.7 µM
same,TGI,CAKI-1 renal,30.2 µM
same,GI50,A549 NSCLC,22.4 µM
same,TGI,A549 NSCLC,50.5 µM
same,GI50,NCI/ADR-RES ovarian,15.2 µM
same,TGI,NCI/ADR-RES ovarian,45 µM
same,GI50,COLO 205 colon,21.8 µM
same,TGI,COLO 205 colon,63 µM
same,GI50,HCT-116 colon,15.3 µM
same,TGI,HCT-116 colon,28.7 µM
same,GI50,M14 melanoma,15.9 µM
same,TGI,M14 melanoma,30.3 µM
same,GI50,SK-OV-3 ovarian,21.6 µM
same,TGI,SK-OV-3 ovarian,57 µM
BrCCCc1n(Cc2ccc3ccccc3c2)c2ccccc2[n+]1Cc1ccc2ccccc2c1,GI50,DU-145 prostate,1.58 µM
same,TGI,DU-145 prostate,4.25 µM
same,GI50,NCI/ADR-RES ovarian,8.47 µM
same,TGI,NCI/ADR-RES ovarian,> 81.3 µM
O=C(O)c1cc(-c2ccc(-c3ccc(-c4cc(C(=O)O)c5cc(Cl)ccc5n4)cc3)cc2)nc2ccc(Cl)cc12,GI50,T-47D breast,50.9 µM
same,GI50,SF-268 CNS,94.7 µM
same,GI50,SK-MEL-2 melanoma,56 µM
same,GI50,OVCAR-3 ovarian,48.8 µM
same,GI50,MDA-MB-231 breast,46.5 µM
same,GI50,RXF 393 renal,77.9 µM
same,GI50,NCI-H522 lung,79.8 µM
same,GI50,HCT-15 colon,67.2 µM
same,GI50,U251 CNS,40.9 µM
same,GI50,UO-31 renal,32.5 µM
same,GI50,HCT-116 colon,52.4 µM
Cc1ccc(-c2cc3nc(C(Cl)Cl)nc(-c4cccnc4)n3n2)cc1,GI50,HT29 colon,0.652 µM
same,TGI,HT29 colon,> 100 µM
same,GI50,DU-145 prostate,0.548 µM
same,TGI,DU-145 prostate,3.79 µM
same,GI50,MCF7 breast,2.01 µM
same,TGI,MCF7 breast,> 100 µM
same,GI50,MOLT-4 leukemia,1.83 µM
same,TGI,MOLT-4 leukemia,> 100 µM
same,GI50,SR leukemia,0.495 µM
same,TGI,SR leukemia,> 100 µM
same,GI50,K-562 leukemia,2.01 µM
same,TGI,K-562 leukemia,> 100 µM
same,GI50,OVCAR-8 ovarian,1.48 µM
same,TGI,OVCAR-8 ovarian,> 100 µM
